The record followed here is US5858702A, “Isolation, cloning and expression of transmembrane water channel Aquaporin 5 (AQP5)” (The Johns Hopkins University, priority 1995, dated 1999).

The assay can be described thus: Stopped-flow water flux (Pf) in control liposomes, effect of mercurial reagents. The format is biochemical. To be noted: 1 mM mercurial. The method, then:
Purified AQP1 was stored overnight at 0° C. or frozen for several days at -80° C. prior to reconstitution. Reconstitution into proteoliposomes was carried out in a final volume of 1 ml containing 60-90 μg of purified AQP 1 protein in chromatography buffer, 9 mg of bath-sonicated E. coli phospholipid, 1.25% (w/v) octyl glucoside, and 50 mM Tris-HCl (pH 7.5). The mixture was briefly blended on a vortex mixer and incubated for 20 minutes on ice. […] Protein and phospholipid were measured as described by Ambudkar & Maloney (J. Biol. Chem., 1986, 261:10079-10086).
Permeability measurements. Membrane permeability measurements (Pf) were measured by exposing AQP1 proteoliposomes or control liposomes to an osmotic gradient by rapid mixing with an equal volume of another solution containing buffer A plus sufficient sucrose to increase osmolality in the mixed solutions to a value 120% of that in the original solution. This was performed with a stopped-flow fluorometer (SF.17MV, Applied Photophysics, Leatherhead, U.K.) with a measured dead time of 0.7 ms. […] Extravesicular carboxyfluorescein fluorescence was completely quenched using anti-fluorescein antibody (Harris et al., 1990, Am. J. Physiol. 259:F366-F371). […]

`[Cl][Hg][Cl]` [HgCl2]: the “effect on the Pf of control liposomes” value is on record as “Neither pCMBS nor HgCl2 had any effect”.
